Measurements from US20090227560A1, “Substituted imidazole compound and use thereof” (priority 2007, published 2009).
Counter-ions that a name gives are not always drawn.

Biological target: T1, Human renin (Homo sapiens, UniProt P00797)
T1 construct: thus to obtain 1.5 mg of a purified product of active type renin (67-406); made in house; host or cells: FreeStyle 293-F cells (transient expression of pcDNA3.1(+)/hREN)
T1 sequence (P00797 67-406): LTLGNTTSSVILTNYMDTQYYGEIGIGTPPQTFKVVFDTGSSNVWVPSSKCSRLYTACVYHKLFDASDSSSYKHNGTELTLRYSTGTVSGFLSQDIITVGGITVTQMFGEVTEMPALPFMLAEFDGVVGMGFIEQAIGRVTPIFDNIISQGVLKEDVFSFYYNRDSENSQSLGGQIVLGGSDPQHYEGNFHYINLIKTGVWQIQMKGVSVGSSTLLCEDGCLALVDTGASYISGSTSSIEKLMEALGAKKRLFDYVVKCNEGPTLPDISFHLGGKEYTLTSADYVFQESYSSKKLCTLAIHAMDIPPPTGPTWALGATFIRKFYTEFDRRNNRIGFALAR
Assay: Measurement of renin inhibition value A (FITC-labelled substrate peptide, capillary electrophoresis)
Type: biochemical
Details: test compound 1 μM, renin 4.7 nM, pH 6.0, 37° C., 30 min, read-out: inhibitory activity (%) at 1 μM
Protocol: Human renin was obtained by expressing preprorenin (1-406) in an animal cell, treating the prorenin (24-406) contained in the culture supernatant with trypsin, and taking the active type (67-406).
To 3.6 mg of prorenin (24-406) dissolved in 5.2 ml of 0.1 M Tris-hydrochloric acid (pH 8.0), 12 μg of trypsin (Roche Diagnostics Corp.) was added, and the mixture was allowed to react at 28° C. for 55 min to carry out activation of renin. After the reaction, 0.4 ml of immobilized trypsin inhibitor (Pierce Biotechnology, Inc.) was added to remove the trypsin used in the activation by adsorption. The reaction liquid containing the active type renin was concentrated using Vivaspin 20 (molecular weight cut off 10,000, Vivascience, Inc.), and was diluted with 20 mM Tris-hydrochloric acid (pH 8.0). The diluted liquid was fed to a TSKgel DEAE-5PW column (7.5 mm I.D.×75 mm, Tosoh Corp.) equilibrated with 20 mM Tris-hydrochloric acid (pH 8.0) at a flow rate of 1 ml/min to adsorb the active type renin (67-406). The column was washed with the buffer solution used for the equilibration, and then elution was carried out by means of a sodium chloride linear concentration gradient from 0 M to 0.3 M, thus to obtain 1.5 mg of a purified product of active type renin (67-406).
As a substrate for renin activity measurement, a substrate peptide (FITC-Acp-Asp-Arg-Val-Tyr-Ile-His-Pro-Phe-His-Leu-Val-Ile-His-Gln-Arg-NH2; SEQ ID No.8) wherein the N-terminal of a peptide prepared in reference to a partial sequence (Asp-Arg-Val-Tyr-Ile-His-Pro-Phe-His-Leu-Val-Ile-His-Asn-Glu-NH2; SEQ ID No.7) of human angiotensinogen was bound with epsilon aminocaproic acid (Acp) as a linker and labeled with a fluorescence reagent Fluorescein isothiocyanate (FITC). 2 μl each of the test compound (containing 100% DMSO) was added to each well of a 384-well black plate (Nalge Nunc International Co., Ltd.). Renin was diluted with a buffer solution for reaction (20 mM citric acid-sodium citrate (pH 6.0)) to a concentration of 4.7 nM, and 30 μl each of the dilution was added to each well. The dilution was left to stand at 37° C. for 10 min, and then 8 μl of each of a 25 μM solution of substrate peptide was added to each well to initiate the reaction. The reaction mixture was left to stand at 37° C. for 30 min, and then 40 μl each of a reaction terminating solution [200 mM Tris-hydrochloric acid (pH 8.0), 0.04% Triton-X 100, 0.4% Coating 3 reagent (Caliper Life Sciences Corp.) and 1 μM CGP-29287 (Bachem Holding AG)] was added to each well to terminate the reaction.
The substrate peptide and the product peptide were separated by a microchip type capillary electrophoresis system 250HTS (Caliper Life Sciences Co., Ltd.), and the rate of reaction [(peak height of product)/(peak height of product+peak height of substrate)×100(%)] was calculated from the ratio of the respective peak height of the peptides obtained by fluorimetric detection (excitation wavelength 457 nm, measurement wavelength 530 nm), and was used as an index of the renin activity.
While the reaction rate of the well where 100% DMSO only was added was taken as 0% inhibition rate, and the reaction rate of the well where 10 μM of CGP-29287 was added was taken as 100% inhibition rate, the renin inhibitory activity of the wells where the test compound (containing 100% DMSO) was added was calculated.

| inhibition at 1 µM | Structure (SMILES) |
| --- | --- |
| 99% | CSCCCOC[C@@]1(O)CCCC[C@@H]1n1cnc(C(=O)N2CCNC[C@H]2Cc2ccccc2)c1-c1ccccc1 [Example 378, (1R,2S)-2-(4-{[(2R)-2-Benzylpiperazin-1-yl]carbonyl}-5-phenyl-1H-imidazol-1-yl)-1-{[3-(methylthio)propoxy]methyl}cyclohexanol] |
| 99% | O=C(c1ncn(CC2(O)CCCCC2)c1-c1ccccc1)N1CCNC[C@H]1Cc1ccccc1 [Example 4, 1-[(4-{[(2R)-2-Benzylpiperazin-1-yl]carbonyl}-5-phenyl-1H-imidazol-1-yl)methyl]cyclohexanol] |
| 99% | COC[C@]1(O)CCCC[C@H]1n1cnc(C(=O)N2CCNC[C@H]2Cc2cc(F)cc(F)c2)c1-c1ccccc1 [Example 379, (1S,2R)-2-(4-{[(2R)-2-(3,5-Difluorobenzyl)piperazin-1-yl]carbonyl}-5-phenyl-1H-imidazol-1-yl)-1-(methoxymethyl)cyclohexanol hydrochloride] |
| 98% | O=C(c1ncn([C@@H]2CCCC[C@@]2(O)CC2CC2)c1-c1ccccc1)N1CCNC[C@H]1Cc1ccccc1 [Example 363, (1R,2R)-2-(4-{[(2R)-2-Benzylpiperazin-1-yl]carbonyl}-5-phenyl-1H-imidazol-1-yl)-1-(cyclopropylmethyl)cyclohexanol hydrochloride] |
| 100% | CCOC(=O)N[C@H]1CCCC[C@@H]1n1cnc(C(=O)N2CCNC[C@H]2Cc2ccccc2)c1-c1ccccc1 [Example 357, Ethyl [(1S,2S)-2-(4-{[(2R)-2-benzylpiperazin-1-yl]carbonyl}-5-phenyl-1H-imidazol-1-yl)cyclohexyl]carbamate] |
| 99% | CCCCC1(O)CCCCC1n1cnc(C(=O)N2CCNC[C@H]2Cc2ccccc2)c1-c1ccccc1 (stereo partly drawn) [Example 360, 2-(4-{[(2R)-2-Benzylpiperazin-1-yl]carbonyl}-5-phenyl-1H-imidazol-1-yl)-1-butylcyclohexanol hydrochloride] |
| 98% | COC(=O)N[C@H]1CCCC[C@@H]1n1cnc(C(=O)N2CCNC[C@H]2Cc2ccccc2)c1-c1ccccc1 [Example 6, Methyl [(1S,2S)-2-(4-{[(2R)-2-benzylpiperazin-1-yl]carbonyl}-5-phenyl-1H-imidazol-1-yl)cyclohexyl]carbamate] |
| 100% | COC[C@]1(O)CCCC[C@H]1n1cnc(C(=O)N2CCNC[C@H]2Cc2cccnc2)c1-c1ccccc1 [Example 380, (1S,2R)-1-(Methoxymethyl)-2-(5-phenyl-4-{[(2R)-2-(pyridin-3-ylmethyl)piperazin-1-yl]carbonyl}-1H-imidazol-1-yl)cyclohexanol dihydrochloride] |
| 100% | CCOCC1(O)CCCCC1n1cnc(C(=O)N2CCNC[C@H]2Cc2ccccc2)c1-c1ccccc1 (stereo partly drawn) [Example 361, 2-(4-{[(2R)-2-Benzylpiperazin-1-yl]carbonyl}-5-phenyl-1H-imidazol-1-yl)-1-(ethoxymethyl)cyclohexanol] |
| 101% | O=C(c1ncn(C2CCCCC2)c1-c1ccccc1)N1CCNC[C@H]1Cc1ccccc1 [Example 349, (2R)-2-Benzyl-1-[(1-cyclohexyl-5-phenyl-1H-imidazol-4-yl)carbonyl]piperazine] |
| 100% | O=C(c1ncn(C2CCCCC[C@@H]2O)c1-c1ccccc1)N1CCNC[C@H]1Cc1ccccc1 (stereo partly drawn) [Example 7, trans-2-(4-{[(2R)-2-Benzylpiperazin-1-yl]carbonyl}-5-phenyl-1H-imidazol-1-yl)cycloheptanol] |
| 96% | O=C(c1ncn([C@H]2CCCC[C@H]2O)c1-c1ccccc1)N1CCNC[C@H]1Cc1cc(F)cc(F)c1 [Example 1, (1R,2S)-2-(4-{[(2R)-2-(3,5-Difluorobenzyl)piperazin-1-yl]carbonyl}-5-phenyl-1H-imidazol-1-yl)cyclohexanol hydrochloride] |
| 100% | COC[C@]1(O)CCCC[C@H]1n1cnc(C(=O)N2CCNC[C@H]2Cc2ccccc2)c1-c1cccc(F)c1 [Example 383, (1S,2R)-2-[4-{[(2R)-2-Benzylpiperazin-1-yl]carbonyl}-5-(3-fluorophenyl)-1H-imidazol-1-yl]-1-(methoxymethyl)cyclohexanol] |
| 103% | CCOC(=O)N[C@H]1CCCC[C@@H]1n1cnc(C(=O)N2CCNC[C@H]2Cc2cc(F)cc(F)c2)c1-c1ccccc1 [Example 358, Ethyl [(1S,2S)-2-(4-{[(2R)-2-(3,5-difluorobenzyl)piperazin-1-yl]carbonyl}-5-phenyl-1H-imidazol-1-yl)cyclohexyl]carbamate] |
| 105% | COC[C@]1(O)CCCC[C@H]1n1cnc(C(=O)N2CCNC[C@H]2CCOc2ccc(C(=O)NC3CC3)cc2)c1-c1ccccc1 [Example 390, N-Cyclopropyl-4-{2-[(2R)-1-({1-[(1R,2S)-2-hydroxy-2-(methoxymethyl)cyclohexyl]-5-phenyl-1H-imidazol-4-yl}carbonyl)piperazin-2-yl]ethoxy}benzamide] |
| 99% | COC[C@]1(O)CCCC[C@H]1n1cnc(C(=O)N2CCNC[C@H]2Cc2ccccc2)c1-c1ccccc1 [Example 367, (1S,2R)-2-(4-{[(2R)-2-Benzylpiperazin-1-yl]carbonyl}-5-phenyl-1H-imidazol-1-yl)-1-(methoxymethyl)cyclohexanol dihydrochloride] |
| 96% | COC[C@]1(O)CCCC[C@H]1n1cnc(C(=O)N2CCNC[C@H]2CCOc2ccc(C(=O)OC)cc2)c1-c1ccccc1 [Example 15, Methyl 4-{2-[(2R)-1-({1-[(1R,2S)-2-hydroxy-2-(methoxymethyl)cyclohexyl]-5-phenyl-1H-imidazol-4-yl}carbonyl)piperazin-2-yl]ethoxy}benzoate] |
| 109% | COC[C@]1(O)CCCC[C@H]1n1cnc(C(=O)N2CCNC[C@H]2CCn2ncc3ccccc32)c1-c1ccccc1 [Example 391, (1S,2R)-2-[4-({(2R)-2-[2-(1H-Indazol-1-yl)ethyl]piperazin-1-yl}carbonyl)-5-phenyl-1H-imidazol-1-yl]-1-(methoxymethyl)cyclohexanol] |
| 109% | COC[C@]1(O)CCCC[C@H]1n1cnc(C(=O)N2CCNC[C@H]2CCOc2ccccc2)c1-c1ccccc1 [Example 387, (1S,2R)-1-(Methoxymethyl)-2-(4-{[(2R)-2-(2-phenoxyethyl)piperazin-1-yl]carbonyl}-5-phenyl-1H-imidazol-1-yl)cyclohexanol dihydrochloride] |
| 101% | O=C(c1ncn([C@H]2CCCC[C@H]2O)c1-c1ccccc1)N1CCNC[C@H]1Cc1ccccc1 [Example 352, (1R,2S)-2-(4-{[(2R)-2-Benzylpiperazin-1-yl]carbonyl}-5-phenyl-1H-imidazol-1-yl)cyclohexanol] |
| 106% | COC[C@]1(O)CCCC[C@H]1n1cnc(C(=O)N2CCNC[C@H]2CCOc2ccccc2F)c1-c1ccccc1 [Example 389, (1S,2R)-2-[4-({(2R)-2-[2-(2-Fluorophenoxy)ethyl]piperazin-1-yl}carbonyl)-5-phenyl-1H-imidazol-1-yl]-1-(methoxymethyl)cyclohexanol] |
